{"source": "patent US6803044B1", "about": "“Antimicrobial and anti-inflammatory peptides for use in human immunodeficiency virus” (priority 1999, dated 2004)", "key": {"[1]": {"tested_on": "C. albicans (clinical isolate)", "test": "Melanocortin peptides on C. albicans viability (colony forming units)", "type": "cell-based", "details": "for reduction of C. albicans CFU at higher concentrations: up to 10^−4M; for C. albicans colony forming units (CFU): two hours at 37° C.", "experimental": "S. aureus (ATCC 29213) and C. albicans (clinical isolate) were obtained from the collection of the Department of Microbiology, Ospedale Maggiore di Milano. C. albicans were maintained on Sabouraud'[…] periodically transferred to Sabouraud's agar plates and incubated for 48 hours at 28° C. To prepare stationary growth phase yeast, a colony was taken from the agar plate and transferred into 30 ml Sabouraud-dextrose broth and incubated for 72 hours at 32° C. Cells were centrifuged at 100×g for 10 minutes and the pellet was washed twice with distilled water. Cells were counted and suspended in Hank's balanced salt solution (“HBSS”) to the desired concentration. Viability, determined by the exclusion of 0.01% methylene blue, remained >98%. […] Cells were then washed in cold distilled water and diluted with HBSS to a concentration of 100 organisms/ml. One ml aliquots were dispensed on blood agar plates and incubated for 48 hours at 37° C. Organism viability was estimated from the number of colonies formed. In subsequent experiments using similar procedures we compared activity of α-MSH (4-10), (6-13), (11-13), ACTH (1-39), (18-39), and fluconazole, the latter an established […]. […] There were at least six replicates for each concentration of peptide. […] The reaction was stopped after three minutes by the addition of ice cold ethanol. cAMP was measured in duplicate using a commercial enzyme immunoassay (EIA) kit (Amersham, United Kingdom) after extraction via the liquid-phase method according to manufacturer's instructions."}, "[2]": {"tested_on": "chronically HIV-1 infected promonocytic U1 cell line", "test": "p24 antigen release by stimulated U1 cells (ELISA)", "type": "cell-based", "details": "for most effective concentration for HIV inhibition (p24 release): tested 10^−13 to 10^−4 M", "experimental": "(§1) Before use, cells were washed three times with HBSS (Gibco) to remove extracellular virus. […] In crowding experiments, U1 cells were seeded at the density of 2×10^5 mL and maintained in culture at 37° C. in 5% CO2 without change of medium for 7 days. […] In all experiments each condition was tested in triplicate.\n(§2) p24 antigen release (Cellular Products Inc. Buffalo, N.Y., USA) and reverse transcriptase (ELISA Retrosys RT assay, Innovagen, Lund, Sweden) were determined using commercial ELISA kits."}, "[3]": {"tested_on": "chronically HIV-1 infected promonocytic U1 cell line", "test": "reverse transcriptase (RT) release by stimulated U1 cells (ELISA)", "type": "cell-based", "details": "U1 cells induced by IL-6, IL-10, PMA, and in crowding condition; KPV 10^−5 M", "experimental": "as §1, §2"}, "[4]": {"tested_on": "HIV-1 RNA in PMA-stimulated U1 cells", "test": "Northern blot for HIV-1 RNA in U1 cells", "type": "cell-based", "details": "PMA (1 ng/mL)-stimulated U1 cells; KPV 10^−5 M; 24 h", "text": "Total RNA was extracted by the guanidine thiocyapate phenol method using an RNA isolation kit (Tripure, Boehringer Mannheim, Indianapolis, Ind.), following the manufacturer's instructions. Ten μg of total RNA were separated by 0.8% agarose/formaldehyde gel electrophoresis and transferred onto nylon membrane. The filters were baked and hybridized for 18 hr with α^32 P-labeled HIV-full length probe (kind gift of L. Turchetto and E. Vicenzi, S. Raffaele Hospital, Milan, Italy). The radiolabelling reaction was performed using a DNA labelling kit (Ready-to-go, Pharmacia Biotech, San Francisco, Calif.). Filters were washed and exposed to X-ray film for 5 days. The labeled probe was removed by washing at 80° C. in 0.1×SSC containing 0.1% sodium dodecyl sulphate and then rehybridized witb α^32 P-labeled glyceraldehyde-3-phosphate dehydrogenase (GAPDH) cDNA probe. Densitometric analysis was performed using ImageMaster™ VDS 3.0 software (Pharmacia Biotech) and results were expressed as density units."}, "[5]": {"tested_on": "HIV-1Ba-L strain in human MDM", "test": "RT release in acutely infected monocyte derived macrophages (MDM)", "type": "cell-based", "details": "KPV 10^−5 M daily, more pronounced on day 6, still significant on day 21", "experimental": "as §2\nHuman peripheral blood mononuclear cells (PBMCs) were isolated from normal donors by Ficoll-Hypaque density gradient centrifugation. Monocytes were isolated by Percoll gradient separation and allowed to differentiate into macrophages (MDM) in complete medium RPMI plus 20% FCS in 24-well tissue culture plates at 10^6 cells/mL for 7-days. MDM were infected with monocytotropic HIV-1Ba-L strain (1:10) overnight. The undiluted viral stock contained 10^7 infectious Units/mL. After 24 h, MDM were washed and resuspended in complete medium, replaced 3 times/week, for 3 weeks. RT activity was measured weekly post-infection."}, "[6]": {"tested_on": "NF-κB", "test": "Electrophoretic mobility shift assay of NF-κB DNA-binding activity in U1 cells", "type": "cell-based", "details": "10^−5 M peptide", "text": "The mixtures were run on a 5% (30:1) acrylamide gel in 1× Tris-Borate-EDTA (TBE). Gels were dried and exposed to film for autoradiography (3 days)."}, "[7]": {"tested_on": "S. aureus (ATCC 29213)", "test": "Melanocortin peptides on S. aureus viability (colony formation)", "type": "cell-based", "details": "two hours at 37° C.", "experimental": "S. aureus (ATCC 29213) and C. albicans (clinical isolate) were obtained from the collection of the Department of Microbiology, Ospedale Maggiore di Milano. C. albicans were maintained on Sabouraud'[…] periodically transferred to Sabouraud's agar plates and incubated for 48 hours at 28° C. To prepare stationary growth phase yeast, a colony was taken from the agar plate and transferred into 30 ml Sabouraud-dextrose broth and incubated for 72 hours at 32° C. Cells were centrifuged at 100×g for 10 minutes and the pellet was washed twice with distilled water. Cells were counted and suspended in Hank's balanced salt solution (“HBSS”) to the desired concentration. Viability, determined by the exclusion of 0.01% methylene blue, remained >98%. […] Cells were then washed in cold distilled water and diluted with HBSS to a concentration of 100 organisms/ml. One ml aliquots were dispensed on blood agar plates and incubated for 24 hours at 37° C. Organism viability was estimated from the number of colonies formed."}, "[8]": {"tested_on": "S. aureus", "test": "Urokinase-induced growth enhancement of S. aureus", "type": "cell-based", "details": "peptide 10^−6M; urokinase 500 U; four hours", "text": "In experiments on S. aureus, we determined the influence of α-MSH on urokinase-induced growth-enhancement. Hart, D. A.; Loule, T.; Krulikl, W.; Reno, C., Staphylococcus Aureus Strains Differ in Their in Vitro Responsiveness to Human Urokinase: Evidence that Methicillin-Resistant Strains are Predominantly Nonresponsive to the Growth-Enhancing Effects of Urokinase, Can. J. Microbiol. 42, 1024-31 […]. […] Appropriate dilutions of S. aureus were dispensed on agar plates and colonies counted after 24 hours incubation at 37° C."}, "[9]": {"tested_on": "C. albicans", "test": "α-MSH peptides on C. albicans germination (horse serum-induced)", "type": "cell-based", "details": "horse serum-induced germ tube formation; peptide 10^−4M; 60 minutes", "experimental": "C. albicans from stationary phase cultures were washed twice with distilled water and suspended in HBSS to a final concentration of 2×10^6/ml. Hyphal growth was induced by addition of 10% inactivated horse serum (GMCO/BRL, Paisley, Great Britain) to yeast incubated for 45 minutes at 37° C. with continuous shaking. […] The percentage of filamentous cells was evaluated under a light microscope with the aid of a hartocytometer. Experiments were run in triplicate and at least 200 cells were scored. Photomicrographs were taken with a MC100 […] attached to an Axioskop Zeiss microscope."}, "[10]": {"tested_on": "C. albicans killing by human neutrophils", "test": "C. albicans killing by human neutrophils", "type": "cell-based", "details": "two hours at 37° C.", "experimental": "Venous blood (20 ml) from healthy volunteers was anticoagulated with heparin. Neutrophils were isolated using dextran sedimentation and Ficoll-Hypaque (Sigma Chemical Co., St. Louis, Mo., USA) centrifugation. Erythrocytes were lysed via hypotonic shock. Neutrophils represented at least 97% of the cell suspension. Cell viability, estimated by trypan blue exclusion, was >98%. Neutrophils were suspended to final concentration in HBSS. […] After incubation, the culture tubes were placed on ice to stop growth and extracellular organisms were washed twice with centrifugation at 100×g at 4° C. A 2.5% sodium desoxycholate solution was added to the suspension and the tubes were shaken for five minutes. Cold distilled water was added to obtain a suspension of 10^6 cells/ml. Two 1/100 serial dilution in HBSS were made to obtain a final suspension of 100 cells/ml. Aliquots of 1 ml were dispensed on blood agar plates and incubated for 48 hours at 37° C. Colony forming units (“CFU”) were counted at the end of the incubation period. Experiments were run in triplicate and repeated using blood from five different donors."}, "[11]": {"tested_on": "C. albicans", "test": "cAMP accumulation in C. albicans (EIA)", "type": "cell-based", "details": "10^−6M; three minutes", "experimental": "The reaction was stopped after three minutes by the addition of ice cold ethanol. cAMP was measured in duplicate using a commercial enzyme immunoassay (EIA) kit (Amersham, United Kingdom) after extraction via the liquid-phase method according to manufacturer's instructions."}, "[12]": {"details": "in vivo; cited from earlier work"}, "[13]": {"details": "centrally administered, rabbit; cited from earlier work"}, "[14]": {"details": "10^−4M melanocortin peptides (FIG. 11 legend: 10^−6M)"}}, "note": "Ends that are not written are not given here.", "data": [{"substance": "ACTH fragment (18-39): ACTH fragment (18-39) (CLIP) [reference compound]", "values": [{"measurement": "relative potency in reducing C. albicans viability", "setting": "[1]; [14]", "value": "did not reduce C. albicans viability"}, {"measurement": "reduction of C. albicans CFU at higher concentrations", "setting": "[1]", "value": "likewise ineffective"}]}, {"substance": "HFRWGKPV [α-MSH (6-13)]", "values": [{"measurement": "relative potency in reducing C. albicans viability", "setting": "[1]; [14]", "value": "most effective"}]}, {"substance": "KPV", "values": [{"measurement": "most effective concentration for HIV inhibition (p24 release)", "setting": "[2]; TNF-α-stimulated U1 cells", "value": "10^−5 M"}, {"measurement": "p24 release", "setting": "[2]; U1 cells induced by IL-6, IL-10, PMA, and in crowding condition, KPV 10^−5 M", "value": "significantly inhibited"}, {"measurement": "RT release", "setting": "[3]", "value": "significantly inhibited"}, {"measurement": "reduction of both spliced and unspliced HIV-1 RNA", "setting": "[4]", "value": "approximately 50%"}, {"measurement": "RT release", "setting": "[5]", "value": "significantly inhibited"}, {"measurement": "NF-κB activation (DNA binding)", "setting": "[6]; TNF-α-treated U1 cells", "value": "significantly reduced"}, {"measurement": "NF-κB activation (DNA binding)", "setting": "[6]; resting U1 cells", "value": "did not alter"}, {"measurement": "S. aureus colony formation", "setting": "[7]", "value": "inhibited"}, {"measurement": "enhancing effect of urokinase on S. aureus colony formation", "setting": "[8]", "value": "significantly inhibited"}, {"measurement": "C. albicans colony forming units (CFU)", "setting": "[1]", "value": "greatly reduced"}, {"measurement": "reduction in the number of filamentous cells (inhibition of germination)", "setting": "[9]", "value": "54-58%"}, {"measurement": "killing of C. albicans by human neutrophils", "setting": "[10]", "value": "enhanced killing"}, {"measurement": "cAMP content of C. albicans", "setting": "[11]", "value": "enhanced cAMP content"}]}, {"substance": "ACTH (1-39): melanocortin peptide ACTH (1-39) (SYSMEHFRWGKPVGKKRRPVKVYPNGAEDESAEAFPLEF; Corticotropin; UniProt P01189 138-176, looked up) [reference compound]", "values": [{"measurement": "relative potency in reducing C. albicans viability", "setting": "[1]; [14]", "value": "did not reduce C. albicans viability"}, {"measurement": "reduction of C. albicans CFU at higher concentrations", "setting": "[1]", "value": "likewise ineffective"}]}, {"substance": "NH2-Val-Pro-Lys-Ac-Cys-Cys-Ac-Lys-Pro-Val-NH2 (Ac-CKPV-NH2; also: dimer linked through Cys-Cys) [KPV dimer]", "values": [{"measurement": "S. aureus colony formation", "setting": "[7]", "value": "inhibited"}, {"measurement": "effectiveness against microbes compared with α-MSH (11-13)", "setting": "[1]; S. aureus and C. albicans", "value": "at least as effective as α-MSH (11-13)"}, {"measurement": "C. albicans colony forming units (CFU)", "setting": "[1]", "value": "inhibited"}]}, {"substance": "SYSMEHFRWGKPV (listed as Homo sapiens) [α-MSH (1-13)]", "values": [{"measurement": "inhibition of p24 release", "setting": "[2]; TNF-α-stimulated U1 cells, picomolar peptide concentrations that occur in human plasma", "value": "34-36%"}, {"measurement": "most effective concentration for HIV inhibition (p24 release)", "setting": "[2]; TNF-α-stimulated U1 cells", "value": "10^−5 M"}, {"measurement": "S. aureus colony formation", "setting": "[7]", "value": "inhibited"}, {"measurement": "enhancing effect of urokinase on S. aureus colony formation", "setting": "[8]", "value": "significantly inhibited"}, {"measurement": "C. albicans colony forming units (CFU)", "setting": "[1]", "value": "greatly reduced"}, {"measurement": "killing of C. albicans by human neutrophils", "setting": "[10]", "value": "enhanced killing"}, {"measurement": "cAMP content of C. albicans", "setting": "[11]", "value": "enhanced cAMP content"}]}, {"substance": "[Nle^4, D-Phe^7], α-MSH", "values": [{"measurement": "potency in reducing fever relative to parent peptide", "setting": "[12]", "value": "approximately ten times more potent than the parent peptide"}]}, {"substance": "MEHFRWG [α-MSH sequence (4-10)]", "values": [{"measurement": "inhibition of C. albicans CFU", "setting": "[1]; [14]", "value": "approximately 50%"}]}, {"substance": "10-13 sequence: α-MSH (11-13) with glycine added to form the 10-13 sequence (GKPV; ends and bridges not checked; UniProt P01189 147-150, looked up, fragment)", "values": [{"measurement": "antipyretic potency relative to the 11-13 sequence", "setting": "[13]", "value": "slightly decreased potency"}]}]}
